According to US20240368191A1, “HETEROCYCLIC COMPOUNDS AND USES THEREOF” (Kumquat Biosciences Inc., priority 2021, published 2024):
pIC50: −log10 of the molar value.

Tests used:
K-Ras G12S = target: T1, K-Ras G12S (Homo sapiens, UniProt P01116, G12S); test: HTRF assay, K-Ras G12S / SOS1 interaction; assay type: biochemical; details: IC50 against K-Ras G12D divided by IC50 against K-Ras G12S
T1 construct: made in house; host or cells: E. coli, e.g. BL21 (DE3)
Source text: This assay can be also used to assess a selective inhibition or reduction of signaling output of a mutant Ras protein relative to a wildtype, or relative to a different mutant Ras protein. For example, the equilibrium interaction of wildtype Kras or K-Ras mutant (e.g., wildtype or a mutant thereof including those mentioned in Example 6) with SOS1 (e.g., hSOS1) can be assessed as a proxy or an indication for a subject compound's ability to bind and inhibit Ras protein. HTRF assay detects from (i) a fluorescence resonance energy transfer (FRET) donor (e.g., antiGST-Europium) that is bound to GST-tagged K-Ras mutant to (ii) a FRET acceptor (e.g., anti-6His -XL665) bound to a His -tagged hSOS1.
The assay buffer can contain ˜5 mM HEPES pH 7.4, ˜150 mM NaCl, ˜1 mM DTT, 0.05% BSA and 0.0025% (v/v) Igepal. A Ras working solution is prepared in an assay buffer containing typically a suitable amount of the protein construct (e.g., GST-tagged K-Ras mutant) and the FRET donor (e.g., antiGST-Eu(K) from Cisbio, France). A SOS1 working solution is prepared in an assay buffer containing suitable amount of the protein construct (e.g., His -hSOS1) and the FRET acceptor (e.g., anti-6His -XL665 from Cisbio, France). A suitable amount of the protein construct will depend on the range of activity or range of IC50 values being detected or under investigation. For detecting IC50 within a range of 500 nM, the protein constructs of the same range of molarity can be utilized.
A fixed volume of DMSO with or without test compound is transferred into a 384-well plate. Ras working solution is added to all wells of the test plate. SOS1 working solution is added to all wells except for those that are subsequently filled the inhibitor control solution. Upon incubation for about 10 minutes or longer, the fluorescence is measured with a M1000Pro plate reader (Tecan) using HTRF detection (excitation 337 nm, emission 1: 620 nm, emission 2: 665 nm). Compounds are tested in duplicates at different concentrations (for example, 10 μM, 2.5 μM, 0.63 μM, 0.16 μM, 0.04 μM, 0.01 μM test compound). The ratiometric data (i.e., emission 2 divided by emission 1) is used to calculate IC50 values against Ras using GraphPad Prism (GraphPad software). Following this general procedure, samples were tested with or without a subject compound disclosed herein including compounds exemplified in Table 3 to assess their abilities to inhibit K-Ras G12S relative to another mutant (e.g., K-Ras G12D). Signaling output measured in terms of IC50 values can be obtained, a ratio of IC50 against one mutant relative to another mutant can be calculated. For instance, a selective reduction of K-Ras G12S signaling output can be evidenced by a ratio greater than one. In particular, a selective reduction of K-Ras G12S signaling relative to K-Ras G12D signaling is evidenced as the ratio of IC50 (against K-Ras G12D) to IC50 (against K-Ras G12S) is greater than 1.

GP2D cells = test: Cell proliferation assay (CellTiter-Glo), K-Ras G12D cells; assay type: cell-based; details: bins given, read-out: Inhibition of GP2D Cells (IC50)
Procedure: ASPC-1 (ATCC CRL-1682), Panc-10.05 (ATCC CRL-2547), A427, and GP2D (Sigma 95090714) cell lines comprise a G12D mutation and can be used to assess Ras cellular signaling in vitro, e.g., in response to the compounds herein. […] ASPC-1 culture medium is prepared with RPMI-1640 and 10% heat-inactivated FBS. Panc-10.05 culture medium is prepared with RPMI-1640, 10 Units/ml human recombinant insulin, and 10% FBS. A427 cell culture is prepared with RPMI-1640 and 10% heat-inactivated FBS. GP2D culture medium is prepared with DMEM with 2 mM glutamine and 10% heat-inactivated FBS. A CellTiter-Glo (CTG) luminescent based assay (Promega) is used to assess growth of the cells, as a measurement of the ability of the compounds herein to inhibit Ras signaling in the cells. The cells (e.g., 800 per well) are seeded in their respective culture medium in standard tissue culture-treated 384-well format plates (Falcon #08-772-116) or ultra-low attachment surface 384-well format plates (S-Bio #MS-9384UZ). The day after plating, cells are treated with a dilution series (e.g., a 9 point 3-fold dilution series) of the compounds herein (e.g., approximately 40 μl final volume per well). Cell viability can be monitored (e.g., approximately 5 days later) according to the manufacturer's recommended instructions, where the CellTiter-Glo reagent is added (e.g., approximately 10 μl), vigorously mixed, covered, and placed on a plate shaker (e.g., approximately for 20 min) to ensure sufficient cell lysis prior to assessment of luminescent signal. The IC50 values are determined using the four parameter fit. The resulting IC50 value is a measurement of the ability of the compounds herein to reduce cell growth of Ras-driven cells (e.g., tumor cell lines) in vitro and/or in vivo.

A549 cells = test: Cell proliferation assay (CellTiter-Glo), K-Ras G12S cells; assay type: cell-based; details: Homo sapiens, A549; ≤500 nM; read-out: Inhibition of A549 Cells (IC50)
Procedure: (§1) A549 (ATCC CRL-185) and LS123 (ATCC CRL-255) cell lines comprise a G12S mutation and can be used to assess Ras cellular signaling in vitro, e.g., in response to the compounds herein. A549 culture medium is prepared with RPMI-1640 and 10% heat-inactivated FBS. LS123 culture medium is prepared with RPMI-1640 and 10% heat-inactivated FBS. A CellTiter-Glo (CTG) luminescent based assay (Promega) is used to assess growth of the cells, as a measurement of the ability of the compounds herein to inhibit Ras signaling in the cells. The cells (e.g., 800 per well) are seeded in their respective culture medium in standard tissue culture-treated 384-well format plates (Falcon #08-772-116) or ultra-low attachment surface 384-well format plates (S-Bio #MS-9384WZ). The day after plating, cells are treated with a dilution series (e.g., a 10 point 3-fold dilution series) of the compounds herein (e.g., approximately 40 μl final volume per well). Cell viability can be monitored (e.g., approximately 6 days later) according to the manufacturer's recommended instructions, where the CellTiter-Glo reagent is added (e.g., approximately 10 μl), vigorously mixed, covered, and placed on a plate shaker (e.g., approximately for 20 min) to ensure sufficient cell lysis prior to assessment of luminescent signal. The IC50 values are determined using the four parameter fit. The resulting IC50 value is a measurement of the ability of the compounds herein to reduce cell growth of Ras-driven cells (e.g., tumor cell lines) in vitro and/or in vivo.

[1] = target: T2, KRAS G12D 1-169 (His-tagged, GDP-loaded) (Homo sapiens, UniProt P01116, G12D); test: Covalent modification of KRAS protein by intact-protein LC-MS; assay type: binding; details: comparable or same conditions as K-Ras G12S
T2 construct: His -tagged GDP-loaded G12D 1-169; made in house; host or cells: E. coli, e.g. BL21 (DE3)
Outline: (§2)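 Percent modification is derived from deconvoluted intact-protein LC-ESI-MS peak intensities of adducted versus unmodified KRAS. GDP-loaded His-tagged KRAS 1-169 (~2 μM, HEPES buffer at physiological conditions) was exposed to compound for 24 hrs at room temperature, then quenched with formic acid before C4 reversed-phase separation.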

[2] = target: T3, KRAS G12S 1-169 (His-tagged, GDP-loaded) (Homo sapiens, UniProt P01116, G12S); test: as above; assay type: binding; details: KRAS G12S, 24 hr
T3 construct: His -tagged GDP-loaded G12S 1-169; made in house; host or cells: E. coli, e.g. BL21 (DE3)
Outline: as §2

LS123 cells = test: Cell proliferation assay (CellTiter-Glo), K-Ras G12S cells; assay type: cell-based; details: Comparative Compound A lacking the warhead vs Compound B
Procedure: as §1

in vitro = details: microsomes, pH 7.4
[3] = Metabolic (microsomal) stability assay; details: pooled liver microsomes, pH 7.4

| Structure (SMILES) | pIC50 (GP2D cells) | pIC50 (A549 cells) | covalent labeling of K-Ras G12D [1] | Compound IC50 Ratio IC50 (Cpd A):IC50 (Cpd B) (LS123 cells) | other results |
| --- | --- | --- | --- | --- | --- |
| N#Cc1cn(C(=O)N2CC3(CCN(c4nc(OC[C@@]56CCCN5C[C@H](F)C6)nc5c(F)c(-c6ccc(F)c7sc(N)nc67)c(Cl)cc45)CC3)C2)cn1 [Compound A179, 1-(7-(7-(2-amino-7-fluorobenzo-[d]thiazol-4-yl)-6-chloro-8-fluoro-2-(((2R,7aS)-2-fluoro-tetrahydro-1H-pyrrolizin-7a(5H)-yl)methoxy)quinazolin-4-yl)-2,7-diazaspiro[3.5]nonane-2-carbonyl)-1H-imidazole-4-carbonitrile] | 5.00 to 6.00 | – | – | – | Ratio of IC50 KRAS G12D vs. IC50 KRAS G12S (K-Ras G12S): A (A: indicates that the ratio of IC50 against KrasG12D vs. IC50 against KrasG12S is 1-fold or greater) |
| Cc1cn(C(=O)N2C3CCC2CN(c2nc(OC[C@@]45CCCN4C[C@H](F)C5)nc4c(F)c(-c5ccc(F)c6sc(N)c(C#N)c56)c(Cl)cc24)C3)nn1 [Compound A189, 2-amino-4-(6-chloro-8-fluoro-2-(((2R,7aS)-2-fluorotetrahydro-1H-pyrrolizin-7a(5H)-yl)meth-oxy)-4-(8-(4-methyl-1H-1,2,3-triazole-1-carbonyl)-3,8-diaza-bicyclo[3.2.1]octan-3-yl)quin-azolin-7-yl)-7-fluorobenzo[b]-thiophene-3-carbonitrile] | ≥ 6.00 | ≥ 6.30 | – | – | – |
| N#Cc1c(N)sc2c(F)ccc(-c3c(Cl)cc4c(N5CC(F)(F)C6(CN(C(=O)n7cncn7)C6)C5)nc(OC[C@@]56CCCN5C[C@H](F)C6)nc4c3F)c12 [Compound A199, 2-amino-4-(6-chloro-4-(8,8-difluoro-2-(1H-1,2,4-triazole-1-carbonyl)-2,6-diazaspiro[3.4]-octan-6-yl)-8-fluoro-2-(((2R,7aS)-2-fluorotetrahydro-1H-pyrrolizin-7a(5H)-yl)meth-oxy)quinazolin-7-yl)-7-fluoro-benzo[b]thiophene-3-carbonitrile] | 5.00 to 6.00 | ≥ 6.30 | essentially no detectable labeling | – | % G12S Modification at 24 hr. [2]: +++ (+++ indicates greater than 20% labelling) |
| C#Cc1c(F)ccc2cc(O)cc(-c3ccc4c(N5CCCC6(CN(C(=O)n7cncn7)C6)C5)nc(OC[C@@]56CCCN5C[C@H](F)C6)nc4c3F)c12 [Compound A210, (6-(7-(8-ethynyl-7-fluoro-3-hydroxynaphthalen-1-yl)-8-fluoro-2-(((2R,7aS)-2-fluoro-tetrahydro-1H-pyrrolizin-7a(5H)-yl)methoxy)quinazolin-4-yl)-2,6-diazaspiro[3.5]nonan-2-yl)(1H-1,2,4-triazol-1-yl)-methanone] | – | – | – | >4 (LS123 cells) | – |
| C#Cc1c(F)ccc2cc(O)cc(-c3ncc4c(N5CC6CCC(C5)N6C(=O)n5ccc(C#N)n5)nc(OC[C@@]56CCCN5C[C@H](F)C6)nc4c3F)c12 [Compound A216, 1-(3-(7-(8-ethynyl-7-fluoro-3-hydroxynaphthalen-1-yl)-8-fluoro-2-(((2R,7aS)-2-fluoro-tetrahydro-1H-pyrrolizin-7a(5H)-yl)methoxy)pyrido[4,3-d]pyrimidin-4-yl)-3,8-diaza-bicyclo[3.2.1]octane-8-carbon-yl)-1H-pyrazole-3-carbonitrile] | ≥ 6.00 | ≥ 6.30 | – | – | half-life at 0.5 μM (in vitro): > 10 min |
| N#Cc1c(N)sc2c(F)ccc(-c3c(Cl)cc4c(N5CC6(CCCN(C(=O)n7cncn7)C6)C5)nc(OC[C@@]56CCCN5C[C@H](F)C6)nc4c3F)c12 [Compound A266, 4-(4-(6-(1H-1,2,4-triazole-1-carbonyl)-2,6-diazaspiro[3.5]-nonan-2-yl)-6-chloro-8-fluoro-2-(((2R,7aS)-2-fluorotetra-hydro-1H-pyrrolizin-7a(5H)-yl)methoxy)quinazolin-7-yl)-2-amino-7-fluorobenzo[b]thio-phene-3-carbonitrile] | – | – | essentially no detectable labeling | >4 (LS123 cells) | half-life at 0.5 μM [3]: > 10 min |
| N#Cc1c(N)sc2c(F)ccc(-c3c(Cl)cc4c(N5CCCCC6(CN(C(=O)n7cncn7)C6)C5)nc(OC[C@@]56CCCN5C[C@H](F)C6)nc4c3F)c12 [Compound A295, 4-(4-(2-(1H-1,2,4-triazole-1-carbonyl)-2,6-diazaspiro[3.6]-decan-6-yl)-6-chloro-8-fluoro-2-(((2R,7aS)-2-fluorotetra-hydro-1H-pyrrolizin-7a(5H)-yl)methoxy)quinazolin-7-yl)-2-amino-7-fluorobenzo[b]thio-phene-3-carbonitrile] | – | – | essentially no detectable labeling | >4 (LS123 cells) | – |
